From patent publication US20220009910A1, “TYROSINE KINASE 2 INHIBITORS, PREPARATION METHODS AND MEDICINAL USES THEREOF” (Eternity Bioscience Inc., priority 2020, published 2022)

Legend:
[1] = tested on: experimental autoimmune disease models (psoriasis, SLE, and IBD); conditions: cited from earlier work
[2] = tested on: IL-12/IL-23 and Type I IFN pathways; conditions: Tokarski et al. 2015; cited from earlier work
[3] = target: T1, Tyk2 JH2 Pseudokinase (Homo sapiens, UniProt P29597); experiment: KdELECT Competition Binding Assay; conditions: 11-point 3-fold dilution series, qPCR readout
T1 construct: purchased Eurofins DiscoverX Corporation (CRO); host or cells: E. coli BL21-derived (T7 phage) or HEK-293
T1 sequence (P29597 589-875 limits assumed): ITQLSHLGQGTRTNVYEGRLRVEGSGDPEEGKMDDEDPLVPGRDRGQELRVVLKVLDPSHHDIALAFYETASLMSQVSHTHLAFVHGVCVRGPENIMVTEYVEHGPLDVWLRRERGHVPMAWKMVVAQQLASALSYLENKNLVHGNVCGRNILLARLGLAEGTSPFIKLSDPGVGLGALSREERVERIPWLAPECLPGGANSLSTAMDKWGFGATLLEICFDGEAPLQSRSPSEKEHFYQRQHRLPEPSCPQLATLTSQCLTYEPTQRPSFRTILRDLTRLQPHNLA
Protocol: The KdELECT Competition Binding Assay is performed by a CRO, Eurofins DiscoverX Corporation following the established standard protocol (DiscoverX, San Diego, Calif.). Briefly, Kinase-tagged T7 phage strains were prepared in an E. coli host derived from the BL21 strain. E. coli were grown to log-phase and infected with T7 phage and incubated with shaking at 32° C. until lysis. The lysates were centrifuged and filtered to remove cell debris. The remaining kinases were produced in HEK-293 cells and subsequently tagged with DNA for qPCR detection. Streptavidin-coated magnetic beads were treated with biotinylated small molecule ligands for 30 minutes at room temperature to generate affinity resins for kinase assays. The liganded beads were blocked with excess biotin and washed with blocking buffer (SeaBlock (Pierce), 1% BSA, 0.05% Tween 20, 1 mM DTT) to remove unbound ligand and to reduce nonspecific binding. Binding reactions were assembled by combining kinases, liganded affinity beads, and test compounds in 1× binding buffer (20% SeaBlock, 0.17×PBS, 0.05% Tween 20, 6 mM DTT). Test compounds were prepared as 111-fold stocks in 100% DMSO. Kds were determined using an 11-point 3-fold compound dilution series with three DMSO control points. All compounds for Kd measurements are distributed by acoustic transfer (non-contact dispensing) in 100% DMSO. The compounds were then diluted directly into the assays such that the final concentration of DMSO was 0.9%. All reactions performed in polypropylene 384-well plate. Each was a final volume of 0.02 mL. The assay plates were incubated at room temperature with shaking for 1 hour and the affinity beads were washed with wash buffer (1×PBS, 0.05% Tween 20). The beads were then re-suspended in elution buffer (1×PBS, 0.05% Tween 20, 0.5 μM non-biotinylated affinity ligand) and incubated at room temperature with shaking for 30 minutes. The kinase concentration in the eluates was measured by quantitative PCR.
Compound Handling: An 11-point 3-fold serial dilution of each test compound was prepared in 100% DMSO at 100-fold final test concentration and subsequently diluted to 1-fold in the assay (final DMSO concentration=1%). Most Kds were determined using a compound top concentration=30,000 nM. If the initial Kd determined was <0.5 nM (the lowest concentration tested), the measurement was repeated with a serial dilution starting at a lower top concentration.

[4] = tested on: Tyk2-mediated, IL23-induced STAT3 phosphorylation in human Kit225 T cell line; experiment: IL-23_Kit225 T Cell Assay (phosphorylated-STAT3, AlphaLISA); assay type: cell-based; conditions: Kit225 cells, compound 1 hour, human recombinant IL-23 20 minutes, pSTAT3
Protocol: (§1) Kit225 cells (licensed from Professor Toshiyuki Hori, Ritsumeikan University, Japan) were seeded in 384-well plate at a density of 1×10^5 cells/well in 4 μL Hank's Balanced Salt Solution (HBSS, Gibco), and incubated for 2 hours in a humidified, 5% CO2 cell culture incubator at 37° C. The cells were treated with serial diluted compounds for 1 hour and stimulated with human recombinant IL-23 (R&D Systems) for 20 minutes. The treated cells were then lysed and cellular phosphorylated-STAT3 levels were measured by AlphaLISA (PerkinElmer) according to the manufacture's instructions. Inhibition data were calculated by comparison to vehicle control wells for 0% inhibition and non-stimulated control wells for 100% inhibition. Dose response curves were then generated to determine the concentration required to suppress 50% of cellular response (IC50) as derived by non-linear regression analysis using GraphPad Prism.

[5] = tested on: Tyk2-mediated, IFNα-induced STAT1 phosphorylation in human Kit225 T cell line; experiment: IFNα_Kit225 T Cell Assay (phosphorylated-STAT1, AlphaLISA); assay type: cell-based; conditions: Kit225 cells, compound 1 hour, human recombinant IFNα 20 minutes, pSTAT1; read-out: IFN-α Kit225 (IC50)
Protocol: as §1, with “cells” for “cells (licensed from Professor Toshiyuki Hori, Ritsumeikan University, Japan)”, “0.5×10^5” for “1×10^5”, “HBSS,” for “Hank's Balanced Salt Solution (HBSS, Gibco),”, “IFNα (Biolegend)” for “IL-23 (R&D Systems)”, “phosphorylated-STAT1” for “phosphorylated-STAT3”, “manufacturer's” for “manufacture's”

Compound	Kd [3] [nM]	IC50 [4] [nM]	IC50 [5] [nM]	in vivo efficacy in experimental autoimmune disease models [1]	block of IL-12/IL-23 and Type I IFN pathways [2]
BMS986165				substantial in vivo efficacy	effectively block
CNC(=O)c1nnc(NC(=O)C2CC2)cc1Nc1cc(N2CC(OC)C2)cc(-c2ncn(C)n2)c1OC [Example A2, 6-(cyclopropanecarboxamido)-4-((2-methoxy-5-(3-methoxyazetidin-1-yl)-3-(1-methyl-1H-1,2,4-triazol-3-yl)phenyl)amino)-N-methylpyridazine-3-carboxamide]	0.004	88	50		

More lines, main results first:

Kd [3] [nM]	IC50 [4] [nM]	IC50 [5] [nM]	Compound	in vivo efficacy in experimental autoimmune disease models [1]	block of IL-12/IL-23 and Type I IFN pathways [2]
0.0035	57	43	[2H]C([2H])([2H])NC(=O)c1nnc(NC(=O)C2CC2)cc1Nc1cc(N2CC(OC)C2)cc(-c2ncn(C)n2)c1OC [Example A1, 6-(cyclopropanecarboxamido)-4-((2-methoxy-5-(3-methoxyazetidin-1-yl)-3-(1-methyl-1H-1,2,4-triazol-3-yl)phenyl)amino)-N-(methyl-d3)pyridazine-3-carboxamide]		
0.037	130	410	[2H]C([2H])([2H])NC(=O)c1nnc(NC(=O)C2CC2)cc1Nc1cc(OC2COC2)cc(-c2ncn(C)n2)c1OC [Example A4, 6-(cyclopropanecarboxamido)-4-((2-methoxy-3-(1-methyl-1H-1,2,4-triazol-3-yl)-5-(oxetan-3-yloxy)phenyl)amino)-N-(methyl-d3)pyridazine-3-carboxamide]		
0.0071	9.7	7.5	[2H]C([2H])([2H])NC(=O)c1nnc(NC(=O)C2CC2)cc1Nc1cc(N2CCC2=O)cc(-c2ncn(C)n2)c1OC [Example A3, 6-(cyclopropanecarboxamido)-4-((2-methoxy-3-(1-methyl-1H-1,2,4-triazol-3-yl)-5-(2-oxoazetidin-1-yl)phenyl)amino)-N-(methyl-d3)pyridazine-3-carboxamide]		
